Consider two compounds from patent US6660690B2, “Seed treatment with combinations of insecticides” (priority 2000, dated 2003).

For one series, the system named is black cutworm larvae. The series is described as follows: Black cutworm feeding damage on corn grown from treated seed or in treated soil (Reference Example 1). The series is classed as in vivo. The settings on record: for Plant Defol. 3 DAI / Plant Defol. 7 DAI / Plant Defol. 10 DAI: rating 1=no damage, 10=complete defoliation. The method, then:
(§1) A lambda-cyhalothrin seed treatment formulation was prepared by diluting the WARRIOR® T insecticide (Zeneca Ag Products, Wilmington, Del.), which contains 11.4% lambda-cyhalothrin as the active ingredient, into water as a carrier. This formulation was applied for one minute at room temperature to twenty-five grams of Pioneer corn seed (Cultivar PN3394) in a rotostatic seed treater at a rate of 125 g, 250 g or 500 g active ingredient (Al) to 100 kg seed. The treated seeds were allowed to sit uncapped for four to twenty-four hours before planting.
(§2) Treated and untreated seeds (Pioneer hybrid PN3394) were planted in a soil mix consisting of Dupo silt loam, 30% Perlite, 20% coarse sand (WB-10 grade) in six groups of tubs (20 in. L×15 in. W×8 in. D). Twelve seeds were planted per tub and three tubs were planted for each treatment regimen. Soil applications of FORCE® 3GR, which contains 3% tefluthrin granule as the active ingredient, were used for two sets of tubs containing untreated seeds. The FORCE 3GR was applied either in-furrow or incorporated into a 5 inch band on the soil surface at the time of planting. The tubs were overhead irrigated until the plants were infested with black cutworm larvae.
The rate of application for the FORCE 3GR was reported in units of grams of the active ingredient per hectare (g/ha), while the rate of application of the WARRIOR T to the seeds was reported in units of grams of the active ingredient per 100 kilograms of the seeds (g/100 kg). Although the conversion of one of these units to the other will vary somewhat according to the type of seed that is being used, the size and weight of the seed, and the density of planting that is used—among other things—an approximate conversion for corn seed can be carried out as follows. Assuming a seed application rate of lambda cyhalothrin of, for example, 125 g/100 kg of seed and a planting density of 15 lbs seed/ac, about 14.7 acres can be planted with 100 kg of the seed. This is an effective application rate of about 8.5 g of lambda cyhalthrin per acre. At 2.47 ac/ha, the seed treatment level of 125 g/100 kg is approximately equivalent to a surface banding treatment at about 21 g/ha.
The corn plants were infested at 12 DAP, which corresponds to late growth stage V1 by placing two black cutworm larvae at ¾ instar on the soil surface near the base of the plant. Plants were rated 3, 7 and 10 days after infestation (DAI) for the number of cut plants, as well as damage from leaf feeding. The percent stand reduction due to plant cutting was calculated by dividing the number of cut plants into the number of plants present at infestation. The foliar feeding injury was evaluated using a rating scale of 1=no damage and 10=complete defoliation.

The next series has as its system corn plants. The series is described as follows: Vigor rating of corn plants at 12 DAP before infestation (indication of phytotoxicity). The settings on record: rating 1=extremely low vigor, 10=highest. The format is in vivo. The procedure: as §1, §2
At twelve days after planting (DAP) but before infestation, the overall health of each plant was rated by looking at emergence, height and appearance. This vigor rating gives an indication of any phytotoxicity from the seed or soil treatment. A rating of 1 indicates extremely low vigor while 10 is the highest vigor rating.

For `Cc1c(F)c(F)c(COC(=O)[C@@H]2[C@H](/C=C(\Cl)C(F)(F)F)C2(C)C)c(F)c1F` (racemic) [Tefluthrin, (2,3,5,6-tetrafluoro-4-methylphenyl)-methyl-(1 alpha, 3 alpha)-(Z)-(±)-3-(2-chloro-3,3,3-trifluoro-1-propenyl)-2,2-dimethylcyclopropanecarboxylate], in the series on black cutworm larvae (soil granule banded 30 g/ha), the “% Stand Reduct'n 3 DAI” value stood at 0.0%, the “Plant Defol. 3 DAI” value stood at 1.7, the “% Stand Reduct'n 7 DAI” value is listed as 0.0% and the “Plant Defol. 7 DAI” value came to 1.7. In the series on black cutworm larvae (soil granule banded 30 g/ha), the “% Stand Reduct'n 10 DAI” value is 0.0% and the “Plant Defol. 10 DAI” value is recorded as 0.3. For the same compound, in the series on black cutworm larvae (soil granule in-furrow 30 g/ha), the “% Stand Reduct'n 3 DAI” value is 33.9%, the “Plant Defol. 3 DAI” value was determined as 5.0, the “% Stand Reduct'n 7 DAI” value was determined as 48.0% and the “Plant Defol. 7 DAI” value came to 6.0. For the same compound, in the series with black cutworm larvae (soil granule in-furrow 30 g/ha), the “% Stand Reduct'n 10 DAI” value turned out to be 48.0% and the “Plant Defol. 10 DAI” value is 5.3. Besides, in the series on corn plants (soil granule (FORCE 3GR) banded 30 g/ha), the “Vigor at 12 DAP” value was determined as 8.7. Further, in the series with corn plants (soil granule (FORCE 3GR) in-furrow 30 g/ha), the “Vigor at 12 DAP” value is given as 9.0.

Turning to `CC1(C)[C@H](C(=O)O[C@H](C#N)c2cccc(Oc3ccccc3)c2)[C@@H]1/C=C(\Cl)C(F)(F)F` [λ-cyhalothrin, [1 alpha (s), 3 alpha(z)]-cyano(3-phenoxyphenyl) methyl-3-(2-chloro-3,3,3-trifluoro-1-propenyl)-2,2-dimethylcyclopropane carboxylate], the entries for the “% Stand Reduct'n 3 DAI” value in the series on black cutworm larvae (seed treatment 125 g/100 kg), with black cutworm larvae (seed treatment 250 g/100 kg) and with black cutworm larvae (seed treatment 500 g/100 kg) were 13.9%, 3.0% and 0.0%, respectively. For the same compound, the “Plant Defol. 3 DAI” value came to 4.3 with black cutworm larvae (seed treatment 125 g/100 kg), 3.7 in the series with black cutworm larvae (seed treatment 250 g/100 kg) and 2.0 in the series on black cutworm larvae (seed treatment 500 g/100 kg). For the same compound, the “% Stand Reduct'n 7 DAI” value is 16.7% in the series with black cutworm larvae (seed treatment 125 g/100 kg); 3.0% in the series with black cutworm larvae (seed treatment 250 g/100 kg); 3% with black cutworm larvae (seed treatment 250 g/100 kg, listed as lambda-cyhalothrin); 0.0% in the series on black cutworm larvae (seed treatment 500 g/100 kg); 0% in the series with black cutworm larvae (seed treatment 500 g/100 kg, listed as lambda-cyhalothrin). Further, the “Plant Defol. 7 DAI” value turned out to be 5.0 in the series on black cutworm larvae (seed treatment 125 g/100 kg), 2.7 in the series on black cutworm larvae (seed treatment 250 g/100 kg) and 2.3 in the series on black cutworm larvae (seed treatment 500 g/100 kg). Also, the “% Stand Reduct'n 10 DAI” value in the series on black cutworm larvae (seed treatment 125 g/100 kg) was found to be 19.4%; with black cutworm larvae (seed treatment 250 g/100 kg), 3.0%; in the series with black cutworm larvae (seed treatment 500 g/100 kg) it was 0.0%. In addition, the “Plant Defol. 10 DAI” value with black cutworm larvae (seed treatment 125 g/100 kg) is 3.3; in the series on black cutworm larvae (seed treatment 250 g/100 kg), 1.7; in the series with black cutworm larvae (seed treatment 500 g/100 kg), 1.0. Also, the entries for the “Vigor at 12 DAP” value with corn plants (seed treatment 125 g/100 kg), with corn plants (seed treatment 250 g/100 kg) and in the series with corn plants (seed treatment 500 g/100 kg) were 9.0, 8.3 and 8.3, respectively.
